Test results from patent US20180237441A1, “Chemical Compounds” (GlaxoSmithKline Intellectual Property (No.2) Limited, priority 2015, published 2018).
Like-named read-outs stand apart in the source and are kept apart here.

Target: T1, PERK (Homo sapiens, UniProt Q9NZJ5)
T1 sequence (Q9NZJ5 30-1116): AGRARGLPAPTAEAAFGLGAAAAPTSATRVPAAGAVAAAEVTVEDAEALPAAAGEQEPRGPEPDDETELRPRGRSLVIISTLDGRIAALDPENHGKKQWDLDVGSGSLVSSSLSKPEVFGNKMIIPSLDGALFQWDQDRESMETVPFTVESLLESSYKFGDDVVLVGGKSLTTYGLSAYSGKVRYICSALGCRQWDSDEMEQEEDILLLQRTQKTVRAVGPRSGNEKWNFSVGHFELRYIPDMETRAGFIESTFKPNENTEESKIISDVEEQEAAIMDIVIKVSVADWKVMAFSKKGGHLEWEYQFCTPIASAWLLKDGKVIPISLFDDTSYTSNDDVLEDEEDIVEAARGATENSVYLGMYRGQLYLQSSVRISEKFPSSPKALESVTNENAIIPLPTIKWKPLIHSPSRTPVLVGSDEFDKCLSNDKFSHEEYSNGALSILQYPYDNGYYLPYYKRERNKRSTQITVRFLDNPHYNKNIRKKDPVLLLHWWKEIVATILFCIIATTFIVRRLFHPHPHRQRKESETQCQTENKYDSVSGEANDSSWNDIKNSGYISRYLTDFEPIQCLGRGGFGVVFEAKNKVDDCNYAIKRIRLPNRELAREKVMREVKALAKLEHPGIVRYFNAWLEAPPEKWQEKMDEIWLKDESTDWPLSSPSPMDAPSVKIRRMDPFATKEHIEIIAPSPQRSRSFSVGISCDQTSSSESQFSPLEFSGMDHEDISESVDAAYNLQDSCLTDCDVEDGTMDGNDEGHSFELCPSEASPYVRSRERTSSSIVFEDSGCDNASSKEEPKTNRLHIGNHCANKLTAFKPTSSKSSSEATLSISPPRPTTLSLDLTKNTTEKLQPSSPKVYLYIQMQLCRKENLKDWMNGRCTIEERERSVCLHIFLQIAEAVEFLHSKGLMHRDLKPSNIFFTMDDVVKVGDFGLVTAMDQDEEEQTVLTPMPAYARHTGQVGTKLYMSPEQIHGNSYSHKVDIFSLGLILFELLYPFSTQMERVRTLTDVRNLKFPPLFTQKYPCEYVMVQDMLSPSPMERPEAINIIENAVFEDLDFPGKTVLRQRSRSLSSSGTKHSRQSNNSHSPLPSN
Assay: PERK enzyme assay (HTRF)
Assay type: biochemical
Settings: at least one experimental run
Summary of the method: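 HTRF read-out after 2 h of EDTA-quenched reactions, detecting phospho-eIF2α with Eu/APC reagents, gave IC50 values. Reaction: 0.75 nM GST-PERK, 30–60 min compound pre-incubation (max 1% DMSO), then 60 min with 40 nM biotin-eIF2α and 500 μM ATP, HEPES pH 7.5 buffer.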

[1] = 500 μM ATP, read-out: PERK Enzyme (500 μM ATP) IC50
[2] = PERK Enzyme (500 μM ATP) IC50, read-out: PERK Activity

Row | Compound | IC50 [1] | IC50 [2]
1 | CCN1C(=O)N(c2ccc(-c3cn(C)c4ncnc(N)c34)c(F)c2)CC1c1cc(F)ccc1F (single isomer, unassigned) [Example 2, 1-(4-(4-amino-7-methyl-7H-pyrrolo[2,3-d]pyrimidin-5-yl)-3-fluorophenyl)-4-(2,5-difluorophenyl)-3-ethylimidazolidin-2-one] | 77.4 nM | < 100 nM
2 | CCN1C(=O)N(c2ccc(-c3cn(C)c4nc(C)nc(N)c34)c(F)c2)CC1c1cc(F)ccc1F (single isomer, unassigned) [Example 45, 1-(4-(4-amino-2,7-dimethyl-7H-pyrrolo[2,3-d]pyrimidin-5-yl)-3-fluorophenyl)-4-(2,5-difluorophenyl)-3-ethylimidazolidin-2-one] |  | > 1000 nM
3 | CCN1C(=O)N(c2ccc(-c3cn(C)c4ncnc(N)c34)c(F)c2)CC1c1cccc(C)c1 (stereo not drawn) [Example 36, 1-(4-(4-amino-7-methyl-7H-pyrrolo[2,3-d]pyrimidin-5-yl)-3-fluorophenyl)-3-ethyl-4-(m-tolyl)imidazolidin-2-one] | 462 nM | 100 to 1000 nM
4 | Cc1nc(N)c2c(-c3ccc(N4CC(C5CCCCC5)N(C)C4=O)cc3F)cn(C)c2n1 (single isomer, unassigned) [Example 61, 1-(4-(4-amino-2,7-dimethyl-7H-pyrrolo[2,3-d]pyrimidin-5-yl)-3-fluorophenyl)-4-cyclohexyl-3-methylimidazolidin-2-one] |  | 100 to 1000 nM
5 | CCN1C(=O)N(c2ccc(-c3cn(C)c4ncnc(N)c34)c(F)c2)CC1c1cc(F)ccc1F (racemic) [Example 1, 1-(4-(4-amino-7-methyl-7H-pyrrolo[2,3-d]pyrimidin-5-yl)-3-fluorophenyl)-4-(2,5-difluorophenyl)-3-ethylimidazolidin-2-one] |  | 100 to 1000 nM
6 | Cc1nc(N)c2c(-c3ccc(N4CC(c5ccc(F)cc5)N(C)C4=O)cc3F)cn(C)c2n1 (stereo not drawn) [Example 69, 1-(4-(4-amino-2,7-dimethyl-7H-pyrrolo[2,3-d]pynmidin-5-yl)-3-fluorophenyl)-4-(4-fluorophenyl)-3-methylimidazolidin-2-one] |  | < 100 nM
7 | Cc1nc(N)c2c(-c3ccc(N4CC(c5ccc(F)cc5F)N(C)C4=O)cc3F)cn(C3CC3)c2n1 (single isomer, unassigned) [Example 8, 1-(4-(4-amino-7-cyclopropyl-2-methyl-7H-pyrrolo[2,3-d]pyrimidin-5-yl)-3-fluorophenyl)-4-(2,4-difluorophenyl)-3-methylimidazolidin-2-one] |  | < 100 nM
8 | CN1C(=O)N(c2ccc(-c3cn(C)c4ncnc(N)c34)c(F)c2)CC1c1cc(C2CC2)ccc1F (stereo not drawn) [Example 49, 1-(4-(4-amino-7-methyl-7H-pyrrolo[2,3-d]pyrimidin-5-yl)-3-fluorophenyl)-4-(5-cyclopropyl-2-fluorophenyl)-3-methylimidazolidin-2-one] |  | 100 to 1000 nM
9 | Cc1nc(N)c2c(-c3ccc(N4CC(c5ccc(F)cc5F)N(C)C4=O)cc3F)cn(C)c2n1 (stereo not drawn) [Example 65, 1-(4-(4-amino-2,7-dimethyl-7H-pyrrolo[2,3-d]pyrimidin-5-yl)-3-fluorophenyl)-4-(2,4-difluorophenyl)-3-methylimidazolidin-2-one] |  | 100 to 1000 nM
10 | CCN1C(=O)N(c2ccc(-c3cn(C)c4ncnc(N)c34)c(F)c2)CC1c1ccc(F)cc1 (stereo not drawn) [Example 57] |  | < 100 nM
11 | CC(C)n1cc(-c2ccc(N3CC(c4cc(F)ccc4F)N(C)C3=O)cc2F)c2c(N)ncnc21 (single isomer, unassigned) [Example 87, 1-(4-(4-amino-7-isopropyl-7H-pyrrolo[2,3-d]pyrimidin-5-yl)-3-fluorophenyl)-4-(2,5-difluorophenyl)-3-methylimidazolidin-2-one] |  | 100 to 1000 nM
12 | CC(C)n1cc(-c2ccc(N3CC(c4cc(F)ccc4F)N(C)C3=O)cc2F)c2c(N)ncnc21 (single isomer, unassigned) [Example 86, 1-(4-(4-amino-7-isopropyl-7H-pyrrolo[2,3-d]pyrimidin-5-yl)-3-fluorophenyl)-4-(2,5-difluorophenyl)-3-methylimidazolidin-2-one] |  | 100 to 1000 nM
13 | CN1C(=O)N(c2ccc(-c3cn(C)c4ncnc(N)c34)c(F)c2)CC1c1ccc(F)cc1 (stereo not drawn) [Example 68, 1-(4-(4-amino-7-methyl-7H-pyrrolo[2,3-d]pyrimidin-5-yl)-3-fluorophenyl)-4-(4-fluorophenyl)-3-methylimidazolidin-2-one] |  | < 100 nM
14 | Cn1cc(-c2ccc(N3CC(c4ccc(F)cc4F)CC3=O)cc2F)c2c(N)ncnc21 (stereo not drawn) [Example 34, 1-(4-(4-amino-7-methyl-7H-pyrrolo[2,3-d]pyrimidin-5-yl)-3-fluorophenyl)-4-(2,4-difluorophenyl)pyrrolidin-2-one] |  | 100 to 1000 nM

Second part, the compound after the results:

Row | IC50 [1] | IC50 [2] | Compound
15 | 351 nM | 100 to 1000 nM | CC(C)n1cc(-c2ccc(N3CC(c4ccc(F)cc4F)N(C)C3=O)cc2F)c2c(N)ncnc21 (stereo not drawn) [Example 92, 1-(4-(4-amino-7-isopropyl-7H-pyrrolo[2,3-d]pyrimidin-5-yl)-3-fluorophenyl)-4-(2,4-difluorophenyl)-3-methylimidazolidin-2-one]
16 |  | 100 to 1000 nM | CN1C(=O)N(c2ccc(-c3cn(C4CC4)c4ncnc(N)c34)c(F)c2)CC1c1ccc(F)cc1 (single isomer, unassigned) [Example 164, 1-(4-(4-amino-7-cyclopropyl-7H-pyrrolo[2,3-d]pyrimidin-5-yl)-3-fluorophenyl)-4-(4-fluorophenyl)-3-methylimidazolidin-2-one]
17 |  | < 100 nM | CCN1C(=O)N(c2ccc(-c3cn(C4CC4)c4ncnc(N)c34)c(F)c2)CC1c1cc(F)cc(F)c1 (single isomer, unassigned) [Example 173, 1-(4-(4-amino-7-cyclopropyl-7H-pyrrolo[2,3-d]pyrimidin-5-yl)-3-fluorophenyl)-4-(3,5-difluorophenyl)-3-ethylimidazolidin-2-one]
18 |  | 100 to 1000 nM | Cc1nc(N)c2c(-c3ccc(N4CC(c5ccc(Cl)nc5)N(C)C4=O)cc3F)cn(C)c2n1 (single isomer, unassigned) [Example 136, 1-(4-(4-amino-2,7-dimethyl-7H-pyrrolo[2,3-d]pyrimidin-5-yl)-3-fluorophenyl)-4-(6-chloropyridin-3-yl)-3-methylimidazolidin-2-one]
19 |  | < 100 nM | CN1C(=O)N(c2ccc(-c3cn(C4CC4)c4ncnc(N)c34)c(F)c2)CC1c1cc(F)cc(F)c1F (single isomer, unassigned) [Example 142, 1-(4-(4-amino-7-cyclopropyl-7H-pyrrolo[2,3-d]pyrimidin-5-yl)-3-fluorophenyl)-3-methyl-4-(2,3,5-trifluorophenyl)imidazolidin-2-one]
20 |  | < 100 nM | CN1C(=O)N(c2ccc(-c3cn(C)c4ncnc(N)c34)c(F)c2)CC1c1cc(F)ccc1F (single isomer, unassigned) [Example 150, 1-(4-(4-amino-7-methyl-7H-pyrrolo[2,3-d]pyrimidin-5-yl)-3-fluorophenyl)-4-(2,5-difluorophenyl)-3-methylimidazolidin-2-one]
21 |  | < 100 nM | CN1C(=O)N(c2ccc(-c3cn(C4CC4)c4ncnc(N)c34)c(Cl)c2)CC1c1cc(F)cc(F)c1 (stereo not drawn) [Example 122, 1-(4-(4-amino-7-cyclopropyl-7H-pyrrolo[2,3-d]pyrimidin-5-yl)-3-chlorophenyl)-4-(3,5-difluorophenyl)-3-methylimidazolidin-2-one]
22 |  | 100 to 1000 nM | CN1C(=O)N(c2ccc(-c3cn(C)c4ncnc(N)c34)c(F)c2)CC1c1cc(F)ccc1F (single isomer, unassigned) [Example 151, 1-(4-(4-amino-7-methyl-7H-pyrrolo[2,3-d]pyrimidin-5-yl)-3-fluorophenyl)-4-(2,5-difluorophenyl)-3-methylimidazolidin-2-one]
23 |  | < 100 nM | CN1C(=O)N(c2ccc(-c3cn(C4CC4)c4ncnc(N)c34)c(F)c2)CC1c1ccc(F)cc1F (single isomer, unassigned) [Example 155, 1-(4-(4-amino-7-cyclopropyl-7H-pyrrolo[2,3-d]pyrimidin-5-yl)-3-fluorophenyl)-4-(2,4-difluorophenyl)-3-methylimidazolidin-2-one]
24 |  | < 100 nM | CN1C(=O)N(c2ccc(-c3cn(C4CC4)c4ncnc(N)c34)c(F)c2)CC1c1cc(F)ccc1F (single isomer, unassigned) [Example 145, 1-(4-(4-amino-7-cyclopropyl-7H-pyrrolo[2,3-d]pyrimidin-5-yl)-3-fluorophenyl)-4-(2,5-difluorophenyl)-3-methylimidazolidin-2-one]
